Data from PMC7934871 (JCI Insight, 2021).
Non-standard residues stand in square brackets, D forms with d. No end group written: not given here. pY = N[C@@H](Cc1ccc(OP(=O)(O)O)cc1)C(=O)O

Legend:
[1] = target: STAT3 (Homo sapiens, UniProt P40763); test: STAT3 protein stability after cycloheximide; type: cell-based; design: protein stability of STAT3 in HCT 116 cells; endogenous in cells; host or cells: HCT116; settings: HCT116, 1 µM peptide pre-incubated 2 hours, 0-2 hours, Western blotting, n = 3
STAT3, sequence (P40763 whole entry): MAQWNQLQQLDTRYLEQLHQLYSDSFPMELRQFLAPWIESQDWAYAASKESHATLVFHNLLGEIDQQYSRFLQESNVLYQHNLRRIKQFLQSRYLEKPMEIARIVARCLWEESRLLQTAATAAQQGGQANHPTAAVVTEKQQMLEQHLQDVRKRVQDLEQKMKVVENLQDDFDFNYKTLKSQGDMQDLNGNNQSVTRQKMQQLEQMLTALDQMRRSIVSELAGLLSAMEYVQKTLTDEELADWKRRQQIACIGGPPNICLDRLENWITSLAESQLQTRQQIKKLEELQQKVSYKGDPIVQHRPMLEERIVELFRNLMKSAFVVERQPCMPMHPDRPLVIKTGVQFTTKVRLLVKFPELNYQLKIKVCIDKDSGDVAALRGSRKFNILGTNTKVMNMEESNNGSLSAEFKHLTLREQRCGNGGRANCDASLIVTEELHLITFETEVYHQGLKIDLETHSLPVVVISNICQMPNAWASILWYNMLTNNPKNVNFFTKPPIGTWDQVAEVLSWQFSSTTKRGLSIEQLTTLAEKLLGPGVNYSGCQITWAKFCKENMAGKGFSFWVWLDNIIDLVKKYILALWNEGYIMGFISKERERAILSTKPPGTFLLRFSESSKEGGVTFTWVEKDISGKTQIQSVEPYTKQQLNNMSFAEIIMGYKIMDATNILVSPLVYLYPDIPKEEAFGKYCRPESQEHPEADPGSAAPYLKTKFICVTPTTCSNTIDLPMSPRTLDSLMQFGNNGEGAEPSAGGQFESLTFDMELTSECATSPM
Procedure: (H) The protein stability of STAT3 in HCT 116 cells was measured at different time points as indicated following cycloheximide (CHX) treatment. The cells were pre-incubated with 1 µM of PS-acet.-STAT3 pept. for 2 hours before adding […] of CHX. The protein level of STAT3 was detected by Western blotting. The quantification was analyzed by protein band intensity od STAT3 and actin by ImageJ software. n= 3 independent experiments. SD is shown. Two-way ANOVA; ns, not significant.
Aftabizadeh et and Li al., Figure S5

[2] = tested on: HCT116 xenografted tumors
Procedure: For in vivo study, HCT116 cells were subcutaneously engrafted into NSG mice. After tumors reached an average size of approximately 5 mm, mice were locally treated with 1 mg/kg of FAM-labeled PS-unacet.-STAT3, PS-STAT3-K685R, or PS-acet.-STAT3 peptides (Anaspec) every day for 35 days. Twenty-four hours after the last treatment, tumors were harvested and analyzed by IF staining and 20× immersion objective on LSM 700 confocal microscope (ZEISS). Images were quantified using Zen software (ZEISS).
Supplemental Figure 5 (related to Figure 2). […]
(C to G) Subcutaneous HCT116 xenografts treated with FAM-labeled PS-unacet.-STAT3, PS-STAT3-K685R or PS-acet.-STAT3 peptides every other day at 1 mg/kg for 40 days.
(C) Retention of PS-acet.-STAT3 peptide was visualized with IF staining of tissue sections followed by confocal microscopy. n= 6 tumor tissues. Scales, 50 µm.
(E) The mRNA levels of CASP9, BIRC5 and BCL2L1 from the same tumor tissues described above were assessed by qRT-PCR. SD is shown. n= 3 independent experiments. One-way […]
(F) IF staining of cell proliferation (Ki-67) and vascularization (CD-31) markers upon peptide treatments in HCT116 tumor tissues. Scales; 50 and 100 µm (upper panels). The lower panels show the quantification of Ki-67 and CD-31. n= 6 tumor tissues.
Same protein samples were used from (D).
Aftabizadeh and Li et al., Figure S5

[3] = tested on: IL-6–induced STAT3 phosphorylation; test: IL-6–induced STAT3 phosphorylation, Western blotting; type: cell-based; settings: preincubated 2 hours, 20 ng/mL IL-6 for 30 minutes
Procedure: Figure 8 PS-Gp130 and PS-MYC blocking peptides efficiently internalize into tumor cells to exert their functions. (A) For 1 hour 1 μM of PS-conjugated MYC (PS-MYC) and Gp130 (PS-Gp130) were incubated with cancer cells. PS-scramble MYC (PS-SC-MYC) was used as a control for PS-MYC. The peptide uptake was visualized by confocal microscopy and quantified by flow cytometry. Data are representative of 3 independent experiments (n = 3). (B) Upper panel: The binding of PS-Gp130 and STAT3 was examined by immunoprecipitation and Western blotting. PO-Gp130 was used as a control. For 4 hours prior to harvest, 1 μM of peptide was incubated with cells. Lower panel: PS-Gp130 inhibits IL-6–induced phosphorylation of STAT3 and p44/42 but not EGF-mediated signaling. The cells were preincubated with PS-Gp130 for 2 hours and then stimulated with 20 ng/mL of IL-6 or 30 ng/mL of EGF for 30 minutes before harvest and Western blotting. (C) Gene expression of STAT3 targets was examined by quantitative PCR after the treatment with 1 μM of PS-Gp130 with or without IL-6 stimulation as described above. Data shown are 3 independent experiments (n = 3); SD is shown. Unpaired Student’s t test; ***P < 0.005; **P < 0.01; *P < 0.05. (D) A total of 1 μM of PS-SC-MYC or PS-MYC was incubated with cells for 48 hours before the gene expression of MYC targets was examined by quantitative PCR. […]

**Q.** “PDIPKEEAFGK685(Ac)YCRPESQEHPC-linker-T*C*C*A*T*G*A*G*C*T*T*C*C*T*G*A*T*G*C*T [PS-acet.-STAT3 peptide]” was tested. Which “protein stability of STAT3” value [1] did it give?
**A.** not affected

**Q.** What about the “tumor progression (proliferation marker Ki-67 and angiogenesis marker CD31)” value ([2]; HCT116 xenograft, 1 mg/kg local, IF staining) of the same substance?
**A.** effectively inhibited

**Q.** What about the “STAT3 phosphorylation in tumors” value ([2]; HCT116 xenograft, 1 mg/kg local, immunoprecipitation and Western blotting) of the same substance?
**A.** effectively inhibited

**Q.** What about the “transcriptional regulation (CASP9, BIRC5, BCL2L1 mRNA) in tumors” value ([2]; HCT116 xenograft, 1 mg/kg local, qRT-PCR) of the same substance?
**A.** effectively inhibited

**Q.** What about the “acetylation of STAT3 in tumors” value ([2]; HCT116 xenograft, same samples as STAT3 phosphorylation) of the same substance?
**A.** only moderately suppressed

**Q.** And the “cellular retention of peptide in tumors in vivo” value ([2]; mouse, in vivo, 1 mg/kg)?
**A.** retained in tumors at significantly higher levels

**Q.** Which “IL-6–induced STAT3 phosphorylation” value [3] does the source give for “PS-Gp130: PS-conjugated Gp130 peptide (amino acids 901–910) with phospho-Tyr905 (MPKS[pY]LPQTV; also: phosphorothioate oligonucleotide conjugate; UniProt P40189 901-910, looked up, fragment)” here?
**A.** selectively inhibited
